# Test results as given in publication PMC8041284, “Tunable Methacrylamides for Covalent Ligand Directed Release Chemistry” (Journal of the American Chemical Society, 2021).
# Biological target: BTK (Homo sapiens, UniProt Q06187)
# Test: biochemical
# Settings: read-out: BTK inhibition (%)
# Sequence of BTK (Q06187 402-655 limits assumed): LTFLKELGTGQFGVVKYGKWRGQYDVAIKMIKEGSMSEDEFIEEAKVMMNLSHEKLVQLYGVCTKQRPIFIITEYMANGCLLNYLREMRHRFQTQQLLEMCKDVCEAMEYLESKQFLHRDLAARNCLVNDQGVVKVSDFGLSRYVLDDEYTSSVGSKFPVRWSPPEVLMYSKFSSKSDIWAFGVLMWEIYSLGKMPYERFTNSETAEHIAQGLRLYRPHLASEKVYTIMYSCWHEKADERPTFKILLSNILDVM
row,Structure (SMILES),inhibition at 10 µM
1,C[C@](O)(COc1ccc(C#N)cc1)C(=O)Nc1ccc(C#N)c(C(F)(F)F)c1 [PCM-0095045],-0.8%

# Same assay, conditions: read-out: BTK inhibition (%), 0.75 uM BTK, […] probe 3l, 15 min preincubation
row,Structure (SMILES),inhibition at 10 µM
1,CC1(C)CC[C@]2(C(=O)O)[C@H](O)C[C@]3(C)C(=CC[C@@H]4[C@@]5(C)C[C@H](O)[C@H](O)[C@@](C)(CO)[C@@H]5CC[C@]43C)[C@@H]2C1 [PCM-0216296],-10.8%
2,CCOC(=O)[C@H](CCc1ccccc1)N[C@H]1CS[C@H](c2cccs2)CN(CC(=O)O)C1=O [PCM-0095261],-1.6%
3,C=C(C)[C@@H]1CC[C@@]2(C)CCC(=O)C(C)=C2C1 [PCM-0216488],-11.6%
4,N=C(N)c1ccc(OCCCCCOc2ccc(C(=N)N)cc2)cc1 [PCM-0064878],-4.7%
5,Cn1cc(-c2ccc3nnc(C(F)(F)c4ccc5ncccc5c4)n3n2)cn1 [PCM-0094910],-1.4%
6,c1ccc2c(CCNc3ccc(Nc4ccncc4)cc3)c[nH]c2c1 [PCM-0095026],26.9%
7,C#C[C@]1(O)CC[C@H]2[C@@H]3CCc4cc(OC)ccc4[C@H]3CC[C@@]21C [PCM-0214662],8.6%
8,CC(C)(CCCCCC(O)CCCCCC(C)(C)C(=O)O)C(=O)O [PCM-0215634],0.7%
9,CCC[S+]([O-])c1ccc2nc(NC(=O)OC)[nH]c2c1 (stereo not shown) [PCM-0095157],20.2%
10,CC1=NN(c2ccccc2)C(=O)C1 [PCM-0006147],6.2%
11,O=C(c1ccc(C(=O)N2CCC(N3CCCC3)CC2)c(Nc2ccccc2)c1)N1CCC(N2CCCC2)CC1 [PCM-0095781],-10.8%
12,CC(=O)c1ccc(NN=C(C(N)=O)C2=NC(C)(C)Cc3ccccc32)cc1 [PCM-0215663],13.1%
13,C[C@H](Nc1ncnc2nc[nH]c12)c1cc2cccc(Cl)c2c(=O)n1-c1ccccc1 [PCM-0095570],2.1%
14,O=c1cc(N2CCOCC2)oc2c(-c3cccc4c3sc3ccccc34)cccc12 [PCM-0095522],-13.6%
15,CNC(=O)[C@H](Cc1ccccc1)NC(=O)[C@H](CC(C)C)[C@H](CSc1cccs1)C(=O)NO [PCM-0215194],11.6%
16,CC(=O)N[C@@H](CS)C(=O)O [PCM-0064400],5.5%
17,CCc1c(C(=O)NCCc2ccc(N3CCCCC3)cc2)[nH]c2ccc(Cl)cc12 [PCM-0214697],2.3%
18,Cc1cc(Cn2cnc3c2C[C@@H](C(=O)O)N(C(=O)C(c2ccccc2)c2ccccc2)C3)ccc1N(C)C [PCM-0215225],6.2%
19,O=C(O)c1ccc(-c2ccc(/C=C3\SC(=S)N(Cc4ccccc4)C3=O)o2)cc1 [PCM-0215715],11.6%
20,Nc1ccc(Oc2ccc(-c3ccc(Oc4ccc(N)cc4)cc3)cc2)cc1 [PCM-0216586],-7.7%
21,O=C(c1ccc(F)cc1)C1CCN(CCn2c(=O)[nH]c3ccccc3c2=O)CC1 [PCM-0065006],0%
22,CCCCCC/C=C\CCCCCCCc1cccc(O)c1C(=O)O [PCM-0216327],84.2%
23,CN/C(=C\[N+](=O)[O-])NCCSCc1ccc(CN(C)C)o1 [PCM-0065476],-3.4%
24,CC(C)=CC(=O)O[C@H]1Cc2cc3ccc(=O)oc3cc2OC1(C)C [PCM-0216507],16.2%
25,COc1cc2c(cc1OC)-c1c(C)c3ccc(OC)c(OC)c3c[n+]1CC2 [PCM-0216326],0%
26,CCN[C@H]1C[C@H](C)S(=O)(=O)c2sc(S(N)(=O)=O)cc21 [PCM-0086331],10.2%

row,Structure (SMILES),inhibition at 10 µM
1,C[C@H]1CNCCCN1S(=O)(=O)c1cccc2cncc(F)c12 [PCM-0215585],-14.5%
2,O=S(=O)(c1ccccc1)N(CC(F)(F)F)c1ccc(C(O)(C(F)(F)F)C(F)(F)F)cc1 [PCM-0095817],27%
3,OCCOCCN1CCN(Cc2cccc(Oc3ccccc3)c2)CC1 [PCM-0215707],13.1%
4,O=c1[nH]cnc2nc[nH]c12 [PCM-0091022],-22.1%
5,Clc1ccc(COC(Cn2ccnc2)c2ccc(Cl)cc2Cl)cc1 (stereo not shown) [PCM-0085902],7.8%
6,Nc1nc(Nc2ccc(S(N)(=O)=O)cc2)nn1C(=O)c1c(F)cccc1F [PCM-0095002],84.1%
7,CCCNC(=O)c1cn2ncnc(Nc3cc(C(=O)NC4CC4)ccc3C)c2c1C [PCM-0215631],-13.8%
8,Cc1cc(=O)c(C(=O)N[C@@H](C(=O)N[C@@H]2C(=O)N3C(C(=O)O)=C(CSc4nnnn4C)CS[C@H]23)c2ccc(O)cc2)c[nH]1 [PCM-0216260],23.2%
9,Cc1c(C(=O)C=Cc2ccccc2)[n+](=O)c2ccccc2n1[O-] [PCM-0216007],-6.9%
10,NCCC[C@H](N)C(=O)O [PCM-0216253],-3.4%
11,CC(=O)C1=C(O)C=C2Oc3c(C(C)=O)c(O)c(C)c(O)c3[C@@]2(C)C1=O [PCM-0094808],17.1%
12,Cc1cn([C@H]2C[C@H](N=[N+]=[N-])[C@@H](CO)O2)c(=O)[nH]c1=O [PCM-0085965],-3.1%
13,COc1cc2c(Nc3ccc(Br)cc3F)ncnc2cc1OCC1CCN(C)CC1 [PCM-0094968],25.5%
14,NCCCNCCCCNCCCN [PCM-0065483],-26.9%
15,Cc1nn(C)c(COc2ccc(N3CCN(S(=O)(=O)N(C)C)CC3)cc2)c1-c1cccc2c(CCCOc3cccc4ccccc34)c(C(=O)O)n(CCN3CCOCC3)c12 [PCM-0215538],5.1%
16,Cc1cc(Cl)ccc1OCCCC(=O)NO [PCM-0064710],7%
17,Clc1cccc(Cl)c1NC1=NCCN1 [PCM-0064514],-19.5%
18,CN(C)Cc1c[nH]c2ccccc12 [PCM-0091332],-24.9%
19,N#Cc1ccc(C(c2ccc(C#N)cc2)n2cncn2)cc1 [PCM-0086304],-2.1%
20,CCCC(=O)Nc1ccc(OCC(O)CNC(C)C)c(C(C)=O)c1 (stereo not shown) [PCM-0085895],-12.5%
21,CC(C)COc1ccc(CNC(=O)N(Cc2ccc(F)cc2)C2CCN(C)CC2)cc1 [PCM-0215604],-3.9%
22,COC(=O)CC[C@@H](C)[C@H]1CC[C@H]2[C@@H]3[C@H](O)C[C@@H]4C[C@H](O)CC[C@]4(C)[C@H]3C[C@H](O)[C@]12C [PCM-0215088],-4.7%
23,Cc1ccccc1C(C(=O)NC1CCCCC1)N(C(=O)Cn1ccnc1C)c1cccc(F)c1 (stereo not shown) [PCM-0215210],-6.9%
24,CCCCC(=O)O[C@]1(C(=O)CO)[C@@H](C)C[C@H]2[C@@H]3CCC4=CC(=O)C=C[C@]4(C)[C@@]3(F)[C@@H](O)C[C@@]21C [PCM-0095140],-15.9%
25,CC(C)(N)C(=O)N[C@H](COCc1ccccc1)C(=O)N1CCC2(CC1)CN(S(C)(=O)=O)c1ccccc12 [PCM-0216059],-11.7%
26,Cc1c(F)cc(C(=O)NC2CC2)cc1-c1ccc(C(=O)NCC(C)(C)C)cn1 [PCM-0095751],-14.5%

row,Structure (SMILES),inhibition at 10 µM
1,Cc1cnc(-c2cc(N3CCN(C(=O)CCS(C)(=O)=O)CC3)ncc2Cl)c(C)c1 [PCM-0095343],7.8%
2,CC[C@@H]1C(=O)N(C)c2cnc(Nc3ccc(C(=O)NC4CCC(N5CCN(CC6CC6)CC5)CC4)cc3OC)nc2N1C(C)C (stereo partly shown) [PCM-0095279],-14.5%
3,O=C1c2c(O)cccc2[C@H]([C@@H]2O[C@H](CO)[C@@H](O)[C@H](O)[C@H]2O)c2cc(CO)cc(O)c21 [PCM-0094826],21%
4,NC(=O)CN1CCCC1=O [PCM-0064964],-16.3%
5,Cn1c2ccccc2c2c3c(c4c5ccccc5n(CCC#N)c4c21)CNC3=O [PCM-0215344],5.5%
6,CCOc1ccc(Cc2cc([C@@H]3O[C@H](SC)[C@@H](O)[C@H](O)[C@H]3O)ccc2Cl)cc1 [PCM-0215557],-17.8%
7,N#C[C@@H]1CCCN1C(=O)CNC12CC3CC(CC(O)(C3)C1)C2 [PCM-0095499],1.6%
8,Cc1[nH]c(/C=C2\C(=O)Nc3ccc(F)cc32)c(C)c1C(=O)NCCN1CCCC1 [PCM-0216233],18.7%
9,CN1C(C(=O)Nc2ccccn2)=C(O)c2sc(Cl)cc2S1(=O)=O [PCM-0090258],-0.9%
10,CN(C)CCCNC(=O)c1ccc(-c2cc(O)c3ncccc3c2)cc1 [PCM-0215418],19.3%
11,COc1cccc2c1C(=O)c1c(O)c3c(c(O)c1C2=O)C[C@@](O)(C(=O)CO)C[C@@H]3O[C@H]1C[C@H](N)[C@H](O[C@@H]2CCCCO2)[C@H](C)O1 [PCM-0214749],53.7%
12,Cc1cccc(C#Cc2ccccc2)n1 [PCM-0065388],-10.9%
13,CC(C)=C1CC[C@@H](C)CC1=O [PCM-0216421],14.7%
14,CCOC(=O)n1ccn(C)c1=S [PCM-0086034],-17.1%
15,O=C1c2cccc3c2[C@H](CCC3)CN1[C@@H]1CN2CCC1CC2 [PCM-0095539],4.3%
16,COc1ccc(CCC(=O)Nc2nc3ccc(Cl)cc3s2)cc1OC [PCM-0095584],-0.8%
17,N#CC(=C(N)Sc1ccc(N)cc1)c1ccccc1C(F)(F)F [PCM-0095011],-28.3%
18,COC(=O)c1cc(OC)c(OC)c(OC)c1 [PCM-0215033],-13.2%
19,O=C(O)c1cc(=O)[nH]c(=O)[nH]1 [PCM-0090751],-11.7%
20,COC1[C@@H](O)[C@H](O)C(O)[C@H](O)[C@H]1O (stereo partly shown) [PCM-0216283],11.6%
21,CO[C@H]1C[C@@H]2CC[C@@H](C)[C@@](O)(O2)C(=O)C(=O)N2CCCC[C@H]2C(=O)O[C@H]([C@H](C)C[C@@H]2CC[C@@H](OCCO)[C@H](OC)C2)CC(=O)[C@H](C)/C=C(\C)[C@@H](O)[C@@H](OC)C(=O)[C@H](C)C[C@H](C)/C=C/C=C/C=C/1C [PCM-0214563],-12.4%
22,Cc1cc(SCc2sc(-c3ccc(C(F)(F)F)c(F)c3)nc2C)ccc1OCC(=O)O [PCM-0095608],-5.4%
23,COc1nc(C)nc(Cl)c1NC1=NCCN1 [PCM-0065456],0.8%
24,Nc1nc(N)c2nc(-c3cccc(O)c3)c(-c3cccc(O)c3)nc2n1 [PCM-0094971],55.2%
25,OC[C@@H](O)[C@@H](O)CO [PCM-0214773],7.8%
26,C[C@@H]1O[C@@H](O[C@@H]2[C@@H](O)[C@H](OCCc3ccc(O)c(O)c3)O[C@H](CO)[C@H]2OC(=O)/C=C/c2ccc(O)c(O)c2)[C@H](O)[C@H](O)[C@H]1O [PCM-0216174],15.9%
